Results published in US11826351B2, “Compounds useful as kinase inhibitors” (Loxo Oncology, Inc., priority 2015, dated 2023).
Where two headings read alike, the source gives them in different places.

How the values were obtained:
[1] = biological target: T1, Recombinant BTK^WT kinase (Homo sapiens, UniProt Q06187); experiment: BTK WT binding affinity (LanthaScreen TR-FRET); conditions: Kinase Tracer 236, 5 h incubation
T1 construct: purchased Invitrogen
Outline: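 IC50 obtained by variable-slope fit of TR-FRET signal (ex 340 nm; em 615 and 665 nm) versus inhibitor concentration. Reaction held for 5 h in LanthaScreen Kinase Buffer A with 2.5 nM His-tagged BTK^WT, 15 nM Kinase Tracer 236 and 2 nM Eu anti-His antibody.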

[2] = biological target: T2, Recombinant BTK^C481S kinase (Homo sapiens, UniProt Q06187, C481S); experiment: BTK C481S binding affinity (LanthaScreen TR-FRET); conditions: Kinase Tracer 236, 5 h incubation
T2 construct: purchased SignalChem
T2 sequence (Q06187 whole entry C481S): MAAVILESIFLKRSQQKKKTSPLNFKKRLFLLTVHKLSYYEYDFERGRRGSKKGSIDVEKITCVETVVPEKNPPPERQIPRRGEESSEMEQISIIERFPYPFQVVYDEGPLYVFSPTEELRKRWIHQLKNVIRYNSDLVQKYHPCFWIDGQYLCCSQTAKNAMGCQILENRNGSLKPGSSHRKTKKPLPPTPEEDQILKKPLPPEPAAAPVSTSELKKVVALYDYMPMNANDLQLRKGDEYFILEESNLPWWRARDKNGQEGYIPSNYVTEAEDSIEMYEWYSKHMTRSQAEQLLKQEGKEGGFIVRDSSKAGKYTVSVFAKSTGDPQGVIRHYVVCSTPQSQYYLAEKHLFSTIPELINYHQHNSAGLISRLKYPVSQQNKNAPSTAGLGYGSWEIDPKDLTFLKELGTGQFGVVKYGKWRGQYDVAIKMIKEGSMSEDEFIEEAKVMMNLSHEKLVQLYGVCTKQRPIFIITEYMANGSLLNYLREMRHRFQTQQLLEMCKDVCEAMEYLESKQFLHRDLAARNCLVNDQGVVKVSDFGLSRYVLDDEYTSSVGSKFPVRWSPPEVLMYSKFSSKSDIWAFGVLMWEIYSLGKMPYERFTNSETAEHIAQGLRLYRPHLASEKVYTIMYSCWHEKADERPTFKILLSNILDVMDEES
Outline: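 BTK C481S tracer-displacement TR-FRET: 5 nM His-tagged kinase, 2 nM Eu anti-His antibody and 30 nM Kinase Tracer 236 incubated with titrated inhibitor for 5 h in Kinase Buffer A. Read at 340 nm excitation, 615/665 nm emission; IC50 from variable-slope log[inhibitor]–response fit.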

Recombinant EGFR = biological target: T3, Recombinant EGFR (Homo sapiens, UniProt P00533); experiment: EGFR binding affinity (LanthaScreen TR-FRET); conditions: Kinase Tracer 199, 5 h incubation
T3 construct: purchased Invitrogen
T3 sequence (P00533 25-1210): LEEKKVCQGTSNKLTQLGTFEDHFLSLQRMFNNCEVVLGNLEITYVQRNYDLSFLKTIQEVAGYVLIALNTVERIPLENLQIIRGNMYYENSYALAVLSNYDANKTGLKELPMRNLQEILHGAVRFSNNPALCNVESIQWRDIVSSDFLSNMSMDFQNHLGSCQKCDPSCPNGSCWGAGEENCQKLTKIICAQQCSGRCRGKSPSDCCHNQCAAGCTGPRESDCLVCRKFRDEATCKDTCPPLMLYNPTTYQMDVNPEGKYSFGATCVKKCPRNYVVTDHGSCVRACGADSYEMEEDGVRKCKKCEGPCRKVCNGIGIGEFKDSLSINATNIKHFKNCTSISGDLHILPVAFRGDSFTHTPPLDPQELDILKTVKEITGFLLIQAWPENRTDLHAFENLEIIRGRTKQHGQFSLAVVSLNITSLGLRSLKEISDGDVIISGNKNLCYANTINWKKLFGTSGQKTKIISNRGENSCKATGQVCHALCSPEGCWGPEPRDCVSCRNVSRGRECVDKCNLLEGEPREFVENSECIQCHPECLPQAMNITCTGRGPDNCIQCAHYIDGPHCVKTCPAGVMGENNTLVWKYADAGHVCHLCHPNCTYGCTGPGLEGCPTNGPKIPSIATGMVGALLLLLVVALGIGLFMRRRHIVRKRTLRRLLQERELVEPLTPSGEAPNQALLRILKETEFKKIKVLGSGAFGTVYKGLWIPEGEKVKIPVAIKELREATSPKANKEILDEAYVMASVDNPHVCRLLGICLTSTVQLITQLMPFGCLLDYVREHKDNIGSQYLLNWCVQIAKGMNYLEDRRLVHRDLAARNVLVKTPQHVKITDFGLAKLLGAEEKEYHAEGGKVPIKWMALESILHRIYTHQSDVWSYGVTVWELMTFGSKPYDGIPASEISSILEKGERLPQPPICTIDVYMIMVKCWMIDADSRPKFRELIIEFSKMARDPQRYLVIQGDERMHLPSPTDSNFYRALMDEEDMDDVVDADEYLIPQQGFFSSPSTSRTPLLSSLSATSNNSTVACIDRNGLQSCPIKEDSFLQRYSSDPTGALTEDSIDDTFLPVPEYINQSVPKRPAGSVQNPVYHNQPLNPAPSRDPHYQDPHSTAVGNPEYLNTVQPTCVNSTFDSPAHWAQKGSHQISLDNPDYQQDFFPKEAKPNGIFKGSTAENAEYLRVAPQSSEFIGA
Outline: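 Compounds were titrated against recombinant EGFR and binding was followed by LanthaScreen time-resolved FRET.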

[3] = system: OCI-Ly10 human DLBCL cells; experiment: OCI-Ly10 anti-proliferative activity (Resazurin); type: cell-based; conditions: OCI-Ly10 cells, 72 h compound treatment, Resazurin, read-out: Proliferation Assay OCI-Ly10-20% FBS
Outline: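 A separate untreated plate gave the Day 0 reading, measured by Resazurin fluorescence at 590 nm after 5 h. The average Day 0 value was subtracted from each treated well, and results were expressed as percent of DMSO control. IC50 values came from a log[Inhibitor] vs response Variable Slope fit in Graphpad prism.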

T1 sequence (Q06187 whole entry): as the sequence (Q06187 whole entry C481S) above, with S481C counted along it

Compound: COc1ccc(F)cc1C(=O)NCc1ccc(-c2nn(C3CCN(C)CC3(F)F)c(N)c2C(N)=O)cc1 (centres unmarked) [Example 191, 5-amino-1-(3,3-difluoro-1-methyl-4-piperidyl)-3-[4-[[(5-fluoro-2-methoxy-benzoyl)amino]methyl]phenyl]pyrazole-4-carboxamide]
- IC50 [1]: < 10 nM
- IC50 [2]: < 10 nM
- IC50 (Recombinant EGFR): 1000 to 10000 nM
- IC50 ([3]; Homo sapiens, OCI-Ly10, 72 h): 10 to 100 nM

Compound: COc1ccc(F)cc1C(=O)NCc1ccc(-c2nn(C(C3CCOC3)C(F)(F)F)c(N)c2C(N)=O)cc1 (mixture of isomers) [Example 175, 5-amino-3-[4-[[(5-fluoro-2-methoxy-benzoyl)amino]methyl]phenyl]-1-(2,2,2-trifluoro-1-tetrahydrofuran-3-yl-ethyl)pyrazole-4-carboxamide]
- IC50 [1]: 10 to 100 nM
- IC50 [2]: 10 to 100 nM
- IC50 (Recombinant EGFR): 1000 to 10000 nM
- IC50 ([3]; Homo sapiens, OCI-Ly10, 72 h): 100 to 1000 nM

Compound: COc1ccccc1C(=O)NCc1ccc(-c2nn(C3Cc4ccccc4C3)c(N)c2C(N)=O)cc1 [Example 52, 5-amino-1-indan-2-yl-3-[4-[[(2-methoxybenzoyl)amino]methyl]phenyl]pyrazole-4-carboxamide]
- IC50 [1]: < 10 nM
- IC50 [2]: < 10 nM
- IC50 (Recombinant EGFR): 100 to 1000 nM
- IC50 ([3]; Homo sapiens, OCI-Ly10, 72 h): 10 to 100 nM

Compound: COc1ccc(F)cc1C(=O)NCc1ccc(-c2nn(C(C3CCOCC3)C(F)(F)F)c(N)c2C(N)=O)cc1 (centres unmarked) [Example 184, 5-amino-3-[4-[[(5-fluoro-2-methoxy-benzoyl)amino]methyl]phenyl]-1-(2,2,2-trifluoro-1-tetrahydropyran-4-yl-ethyl)pyrazole-4-carboxamide]
- IC50 [1]: 10 to 100 nM
- IC50 [2]: < 10 nM
- IC50 (Recombinant EGFR): > 10000 nM
- IC50 ([3]; Homo sapiens, OCI-Ly10, 72 h): < 10 nM

Compound: COc1ccccc1C(=O)NCc1ccc(-c2nn([C@H]3CCOC3)c(C(F)F)c2C(N)=O)cc1 [Example 112, 5-(difluoromethyl)-3-[4-[[(2-methoxybenzoyl)amino]methyl]phenyl]-1-[(3S)-tetrahydrofuran-3-yl]pyrazole-4-carboxamide]
- IC50 [1]: 100 to 1000 nM
- IC50 [2]: 100 to 1000 nM
- IC50 (Recombinant EGFR): > 10000 nM
- IC50 ([3]; Homo sapiens, OCI-Ly10, 72 h): > 10000 nM

Compound: COc1ccccc1C(=O)NCc1ccc(-c2nn(C3CCCC3F)c(N)c2C(N)=O)cc1 (centres unmarked) [Example 103, 5-amino-1-(2-fluorocyclopentyl)-3-[4-[[(2-methoxybenzoyl)amino]methyl]phenyl]pyrazole-4-carboxamide]
- IC50 [1]: < 10 nM
- IC50 [2]: < 10 nM
- IC50 (Recombinant EGFR): 1000 to 10000 nM
- IC50 ([3]; Homo sapiens, OCI-Ly10, 72 h): 10 to 100 nM

Compound: COc1ccccc1C(=O)NCc1ccc(-c2nn(C3COC(C)(C)C3)c(N)c2C(N)=O)cc1 (centres unmarked) [Example 147, 5-amino-1-(5,5-dimethyltetrahydrofuran-3-yl)-3-[4-[[(2-methoxybenzoyl)amino]methyl]phenyl]pyrazole-4-carboxamide]
- IC50 [1]: < 10 nM
- IC50 [2]: < 10 nM
- IC50 (Recombinant EGFR): 1000 to 10000 nM
- IC50 ([3]; Homo sapiens, OCI-Ly10, 72 h): 10 to 100 nM

Compound: COc1ccccc1C(=O)NCc1ccc(-c2nn(C(C)C3CC3)c(N)c2C(N)=O)cc1 (centres unmarked) [Example 131, 5-amino-1-(1-cyclopropylethyl)-3-[4-[[(2-methoxybenzoyl)amino]methyl]phenyl]pyrazole-4-carboxamide]
- IC50 [1]: < 10 nM
- IC50 [2]: < 10 nM
- IC50 (Recombinant EGFR): 100 to 1000 nM
- IC50 ([3]; Homo sapiens, OCI-Ly10, 72 h): 10 to 100 nM

Compound: COc1ccccc1C(=O)NCc1ccc(-c2nn(C3CC(C)(C)OC(C)(C)C3)c(N)c2C(N)=O)cc1 [Example 90, 5-amino-3-[4-[[(2-methoxybenzoyl)amino]methyl]phenyl]-1-(2,2,6,6-tetramethyltetrahydropyran-4-yl)pyrazole-4-carboxamide]
- IC50 [1]: 10 to 100 nM
- IC50 [2]: < 10 nM
- IC50 (Recombinant EGFR): 1000 to 10000 nM
- IC50 ([3]; Homo sapiens, OCI-Ly10, 72 h): 100 to 1000 nM

Compound: COc1ccc(F)cc1C(=O)NCc1ccc(-c2nn(C3CCCC3)c(N)c2C(N)=O)c(F)c1 [Example 136, 5-amino-1-cyclopentyl-3-[2-fluoro-4-[[(5-fluoro-2-methoxy-benzoyl)amino]methyl]phenyl]pyrazole-4-carboxamide]
- IC50 [1]: < 10 nM
- IC50 [2]: < 10 nM
- IC50 (Recombinant EGFR): 1000 to 10000 nM
- IC50 ([3]; Homo sapiens, OCI-Ly10, 72 h): 10 to 100 nM

Compound: COc1ccccc1C(=O)NCc1ccc(-c2nn(C3CCCC3)c(N)c2C(N)=O)c(F)c1 [Example 130, 5-amino-1-cyclopentyl-3-[2-fluoro-4-[[(2-methoxybenzoyl)amino]methyl]phenyl]pyrazole-4-carboxamide]
- IC50 [1]: < 10 nM
- IC50 [2]: < 10 nM
- IC50 (Recombinant EGFR): 1000 to 10000 nM
- IC50 ([3]; Homo sapiens, OCI-Ly10, 72 h): 10 to 100 nM

Compound: COc1ccccc1C(=O)NCc1ccc(-c2nn(C3CCOC3C)c(N)c2C(N)=O)cc1 (single isomer, unassigned) [Example 84, 5-amino-3-[4-[[(2-methoxybenzoyl)amino]methyl]phenyl]-1-[2-methyltetrahydrofuran-3-yl]pyrazole-4-carboxamide]
- IC50 [1]: 10 to 100 nM
- IC50 [2]: < 10 nM
- IC50 (Recombinant EGFR): 1000 to 10000 nM
- IC50 [3]: 1000 to 10000 nM

Compound: COc1ccccc1C(=O)NCc1ccc(-c2nn([C@H]3CC[C@H](Cl)C3)c(N)c2C(N)=O)cc1 (relative stereo) [Example 37, 5-amino-1-[(1S*,3S*)-3-chlorocyclopentyl]-3-[4-[[(2-methoxybenzoyl)amino]methyl]phenyl]pyrazole-4-carboxamide]
- IC50 [1]: < 10 nM
- IC50 [2]: < 10 nM
- IC50 (Recombinant EGFR): 100 to 1000 nM
- IC50 ([3]; Homo sapiens, OCI-Ly10, 72 h): 10 to 100 nM

Compound: COc1ccc(F)cc1C(=O)NCc1ccc(-c2nn(C3CCCOC3)c(N)c2C(N)=O)cc1 (centres unmarked) [Example 113, 5-amino-3-[4-[[(5-fluoro-2-methoxy-benzoyl)amino]methyl]phenyl]-1-tetrahydropyran-3-yl-pyrazole-4-carboxamide]
- IC50 [1]: < 10 nM
- IC50 [2]: < 10 nM
- IC50 (Recombinant EGFR): 1000 to 10000 nM
- IC50 ([3]; Homo sapiens, OCI-Ly10, 72 h): 10 to 100 nM

Compound: COc1ccc(F)cc1C(=O)NCc1ccc(-c2nn(CC(F)(F)F)c(N)c2C(N)=O)cc1 [Example 122, 5-amino-3-[4-[[(5-fluoro-2-methoxy-benzoyl)amino]methyl]phenyl]-1-(2,2,2-trifluoroethyl)pyrazole-4-carboxamide]
- IC50 [1]: < 10 nM
- IC50 [2]: < 10 nM
- IC50 (Recombinant EGFR): 1000 to 10000 nM
- IC50 ([3]; Homo sapiens, OCI-Ly10, 72 h): 10 to 100 nM

Compound: CNc1c(C(N)=O)c(-c2ccc(CNC(=O)c3ccccc3OC)cc2)nn1C1CCC1 [Example 87, 1-cyclobutyl-3-[4-[[(2-methoxybenzoyl)amino]methyl]phenyl]-5-(methylamino)pyrazole-4-carboxamide]
- IC50 [1]: < 10 nM
- IC50 [2]: < 10 nM
- IC50 (Recombinant EGFR): 100 to 1000 nM
- IC50 ([3]; Homo sapiens, OCI-Ly10, 72 h): 100 to 1000 nM

Compound: COc1ccccc1C(=O)NCc1ccc(-c2nn(CC3(C)COC3)c(N)c2C(N)=O)cc1 [Example 8, 5-amino-3-[4-[[(2-methoxybenzoyl)amino]methyl]phenyl]-1-[(3-methyloxetan-3-yl)methyl]pyrazole-4-carboxamide]
- IC50 [1]: 100 to 1000 nM
- IC50 [2]: 10 to 100 nM
- IC50 (Recombinant EGFR): > 10000 nM
- IC50 ([3]; Homo sapiens, OCI-Ly10, 72 h): 100 to 1000 nM

Compound: CCNc1c(C(N)=O)c(-c2ccc(CNC(=O)c3ccccc3OC)cc2)nn1C1CCCC1 [Example 73, 1-cyclopentyl-5-(ethylamino)-3-[4-[[(2-methoxybenzoyl)amino]methyl]phenyl]pyrazole-4-carboxamide]
- IC50 [1]: < 10 nM
- IC50 [2]: < 10 nM
- IC50 (Recombinant EGFR): 100 to 1000 nM
- IC50 ([3]; Homo sapiens, OCI-Ly10, 72 h): 10 to 100 nM

Compound: COc1ccc(F)cc1C(=O)NCc1ccc(-c2nn([C@H](C)C(F)(F)F)c(N)c2C(N)=O)cc1 (single isomer, unassigned) [Example 163b, 5-amino-3-[4-[[(5-fluoro-2-methoxy-benzoyl)amino]methyl]phenyl]-1-(2,2,2-trifluoro-1-methyl-ethyl)pyrazole-4-carboxamide]
- IC50 [1]: < 10 nM
- IC50 [2]: < 10 nM
- IC50 (Recombinant EGFR): 1000 to 10000 nM
- IC50 ([3]; Homo sapiens, OCI-Ly10, 72 h): 10 to 100 nM

Compound: COc1ccccc1C(=O)NCc1ccc(-c2nn(CCO)c(N)c2C(N)=O)cc1 [Example 31, 5-Amino-1-(2-hydroxyethyl)-3-[4-[[(2-methoxybenzoyl)amino]methyl]phenyl]pyrazole-4-carboxamide]
- IC50 [1]: 10 to 100 nM
- IC50 [2]: 10 to 100 nM
- IC50 (Recombinant EGFR): > 10000 nM
- IC50 ([3]; Homo sapiens, OCI-Ly10, 72 h): 1000 to 10000 nM

Compound: CCOC(=O)C1CCC(n2nc(-c3ccc(CNC(=O)c4ccccc4OC)cc3)c(C(N)=O)c2N)CC1 (centres unmarked) [Example 40, Ethyl 4-[5-amino-4-carbamoyl-3-[4-[[(2-methoxybenzoyl)amino]methyl]phenyl]pyrazol-1-yl]cyclohexanecarboxylate]
- IC50 [1]: < 10 nM
- IC50 [2]: < 10 nM
- IC50 (Recombinant EGFR): 100 to 1000 nM
- IC50 ([3]; Homo sapiens, OCI-Ly10, 72 h): 10 to 100 nM

Compound: COc1ccccc1C(=O)NCc1ccc(-c2nn(C3CCOCC3)c(N)c2C(N)=O)cc1 [Example 64, 5-amino-3-[4-[[(2-methoxybenzoyl)amino]methyl]phenyl]-1-tetrahydropyran-4-yl-pyrazole-4-carboxamide]
- IC50 [1]: < 10 nM
- IC50 [2]: < 10 nM
- IC50 (Recombinant EGFR): 100 to 1000 nM
- IC50 ([3]; Homo sapiens, OCI-Ly10, 72 h): 10 to 100 nM

Compound: COc1ccc(F)cc1C(=O)NCc1ccc(-c2nn([C@@H]3CCOC3)c(N)c2C(N)=O)cc1 [Example 164, 5-amino-3-[4-[[(5-fluoro-2-methoxy-benzoyl)amino]methyl]phenyl]-1-[(3R)-tetrahydrofuran-3-yl]pyrazole-4-carboxamide]
- IC50 [1]: < 10 nM
- IC50 [2]: < 10 nM
- IC50 (Recombinant EGFR): 1000 to 10000 nM
- IC50 ([3]; Homo sapiens, OCI-Ly10, 72 h): 10 to 100 nM
